Experimental data published in patent publication US7795242B2, “Methods and compositions for immunomodulation” (The Brigham and Women's Hospital, Inc., priority 2003, dated 2010).

Assays:
IL1AP T cells = assay: Proliferative response of IL1AP T cells stimulated with antigen and dendritic cells ([3H]-thymidine incorporation); format: cell-based, human; settings: for stimulation (proliferation) of IL1AP T cells: DC as APC, FIG. 1A, 2B, 6E, 7A
Description: The antigens provided herein were identified with T-cell activation assays performed using purified fractions in order to determine their relative ability to activate T-cells. These assays were carried out essentially as described in U.S. Pat. Nos. 5,679,347; 5,853,737; and 6,238,676, and in Rosat et al. J. Immunol. 162:366-371, 1999. Other procedures are well-known in the art.
To generate CD1-restricted T cells that recognize novel antigens, we stimulated human peripheral blood lymphocytes using a method that reduces the outgrowth of MHC-restricted T cells and favors the detection of CD1-restricted T cells. This involves the repeated stimulation of lymphocytes with lipid antigens with monocyte-derived dendritic cells (DC) from donors that differ in their MHC protein expression, so that T cells responding to DC with a given MHC class I or II molecule will not be repeatedly stimulated and therefore […] in T cell lines produced after many rounds of stimulation. DCs were prepared from the peripheral blood of healthy donors by centrifugation over Ficoll-Hypaque, adherence of the mononuclear cells to plastic tissue culture flasks, culture of adherent cells with 300 U/ml GM-CSF and 200 U/ml IL-4 for 3 days, followed by irradiation (3300 R).
DC and T cells were cultured at a 1:5 ratio in the presence of 1 μg/ml LKKRRL mixture to yield T cell lines. T cells lines were used to generate clones by culturing T cells at approximately 1 cell per well with phytohemagglutinin, peripheral blood mononuclear cells, transformed B cell lines and 2 nM IL-2. This protocol yielded a polyclonal T cell line IL1AP and several clones derived there from, which are named IL1AP.15, IL1AP.31.
To assay the proliferative responses of IL1AP T cells, 5*10^4 Polyclonal IL1AP T cells were stimulated with 3*10^4 DC and LKKRRL mixture (FIG. 1A). […] C1R cells transfected with the vector pSRα-NEO, containing the cDNAs encoding human CD1a, CD1b, CD1c, CD1d, or no insert (C1R mock) were used as alternative APC for the stimulation of polyclonal T cells with LKKRRL mixture (FIG. 1C). […]

CD1d [1] = molecular target: T1, CD1d (Homo sapiens, UniProt P15813); assay: Competition with αGalCer-mediated NK T cell activation on plate-bound recombinant CD1d; format: cell-based; settings: FIG. 8; for block of αGalCer-mediated NK T activation: compound added in excess to plate-bound recombinant CD1d
Excerpt: Next, to determine whether PPBF could compete with αGalCer-mediated NK T cell responses, we used an in vitro assay of PPBF added to recombinant CD1d proteins bound to a plate.

J.RT3.ABd cells = assay: IL-2 release by J.RT3 cells transfected with IL1AP TCR α and β chains (J.RT3.ABd); format: cell-based; settings: FIG. 11A
Description: We transfected the full-length TCR α and β chains from IL1AP cells into J.RT3 cells to generate a TCR-expressing reporter cell line (J.RT3.ABd). […] To determine whether PPBF could activate through intact CD3 complexes that were reconstituted by transfection of a TCR with irrelevant antigen specificity, J.RT3-T3.5 cells transfected with the TCR α and β chains of the CD8-2 cell line (J.RT3-CD8-2) that recognizes the mycobacterial lipopeptides DDM were tested for IL-2 release upon stimulation with DDM or PPBF.

T cell line IL1AP = assay: IL-2 release by PPBF-reactive T cell line IL1AP with DC as APC (HT-2 bioassay); format: cell-based, human; settings: IL-2 measured 24 h after stimulation; FIG. 7A
Description: Because αGalCer was previously known to function as a potent activator of CD1d-restricted T cell clones known as NK T cells, we sought to determine whether PPBF-reactive T cells and αGalCer-reactive T cells cross react. The PPBF-reactive T cell line IL1AP and the αGalCer-reactive T cell clone J3N.5 were each stimulated with αGalCer and PPBF using DC as APC. IL-2 release was measured 24 h after stimulation. The IL-2 concentration in 50 μl of culture supernatants, harvested 24 hours after T cell stimulation, was determined by adding 10^4 IL-2 starved HT-2 cells in […] medium, and a 6 h pulse after a 24 h incubation.

CD1d [2] = molecular target: T1, CD1d; settings: Im et al., J Biol Chem., 279:299-310, 2004; cited from earlier work
polyclonal lymphocytes = assay: Proliferative response of polyclonal lymphocytes and T cell clones; format: cell-based, human; settings: data not shown
Description: To determine whether PPBF non-selectively activated polyclonal lymphocyte populations or selectively activated antigen-specific clones present at low precursor frequency in vivo, polyclonal lymphocytes were tested for their proliferative response to PPBF.

With Cc1c(C)c(S(=O)(=O)Oc2ccccc2)c(C)c2c1OC(C)(C)C2 [PPBF, phenyl-2,2,4,6,7-pentamethyldihydrobenzofuran-5-sulfonyl] the “stimulation (proliferation) of IL1AP T cells” value (IL1AP T cells) was “Only the T cell line IL1AP and clones derived therefrom were activated by PPBF”, the “stimulation (proliferation) of IL1AP T cells” value (IL1AP T cells; listed as Synthetic PPBF) was “potently stimulate” and the “degree and titer of inhibition of αGalCer-mediated NK T activation compared with 2,6-ANS” value (CD1d [1]) was “comparable to that of 2,6-anilonapthalene sulfonic acid”. For the same compound, the “block of αGalCer-mediated NK T activation” value (CD1d [1]) was “substantially block αGalCer-mediated NK T activation in a dose-dependent manner” and the “IL-2 production by J.RT3.ABd cells upon stimulation” value (J.RT3.ABd cells) was “conferred the ability to produce IL-2 upon stimulation with PPBF”.
For CCCCCCCCCCCCCCCCCCCCCCCCCC(=O)N[C@@H](CO[C@H]1O[C@H](CO)[C@H](O)[C@H](O)[C@H]1O)[C@H](O)[C@H](O)CCCCCCCCCCCCCC [αGalCer, α-galactosyl ceramide], the “recognition by IL1AP T cells (IL-2 release)” value (T cell line IL1AP) was “did not recognize αGalCer”.
For 3-methyl-PPBF, the “capacity to stimulate IL1AP T cell proliferation relative to PPBF” value (IL1AP T cells; FIG. 6E) was “stimulated T cells more potently than PPBF”, the “degree and titer of inhibition of αGalCer-mediated NK T activation compared with 2,6-ANS” value (CD1d [1]) was “comparable to that of 2,6-anilonapthalene sulfonic acid” and the “block of αGalCer-mediated NK T activation” value (CD1d [1]) was “substantially block αGalCer-mediated NK T activation in a dose-dependent manner”.
For O=S(=O)(O)c1ccc2cc(Nc3ccccc3)ccc2c1 [2,6-anilonapthalene sulfonic acid], the “binding to CD1d” value (CD1d [2]) is given as “has been shown to bind CD1d”.
In the case of phytohemagglutinin [reference compound], the “activation of polyclonal T cells and T cell clones (proliferative response)” value (polyclonal lymphocytes) is reported as “activated by the mitogen phytohemagglutinin”.
